Laboratory results taken from patent EP0366632A1, “Alternative energy substrates” (priority 1988, dated 1990).
Marks after values point to notes of the source that are not given here.

Experiments:
[1] = test system: Escherichia coli ATTC 8739; assay: Microorganism count in 2% solutions of sodium salts (Example 19); assay type: cell-based; conditions: 2% solution, pH about 7, +37°C
Method: (§1) Staphylococcus epidermidis 61540-51 and Escherichia coli ATTC 8739 were each added to a respective solution in a concentration of about 3000-10 000/ml. These samples were then incubated at +37°C for 20 hours. A microorganism count was carried out after 2 and 20 hours, in a manner described in microbiological literature. Parallel with the aforesaid tests, a control was run in pure phosphate buffer and in Tryptone soya broth (TSB) with additions of Staphylococcus epidermidis 61540-51 and Escherichia coli ATTC 8739 respectively, to ascertain the viability of the microorganisms to survive, i.e. the ability of the microorganisms to grow under the ideal conditions provided. After 2 hours, the number of organisms/ml of type Staphylococcus epidermidis in the phosphate solution was 4300 and after 20 hours 1. Growth could be established in TSB after 20 hours. […] This was also the case with the sodium salt of 2 percent 5-methyl-3-oxo-hexanoic acid ethyl ester. After 2 hours, the microorganism count of Escherichia coli in the phosphate solution was 3400, and after 20 hours 7400. Growth was established in TSB after 20 hours. In the solution containing 2% sodium salt of 4-methyl-3-oxo-pentanoic acid ethyl ester, the organism count was 2000 after 2 hours and 0 after 20 hours. With respect to the sodium salt of 5-methyl-3-oxo-hexanoic acid ethyl ester, the organism count was 44 after 2 hours and 0 after 20 hours.

[2] = test system: Staphylococcus epidermidis 61540-51; assay: as above; assay type: cell-based; conditions: 2% solution, pH about 7, +37°C
Method: as §1

E. coli = assay: Microorganism count in emulsions diluted to 2% (Example 20, Table 2); assay type: cell-based; conditions: emulsion diluted to 2% with PBS pH=7.00, +37°C
[3] = Unspecified toxicity, intravenous injection in mice; assay type: in vivo; conditions: Example 22: 37 mg per mouse i.v.
Method: Unspecified toxicity was tested on four mice by first weighing the animals, and then injecting the animals intravenously with 0.5 ml of an emulsion of 4-methyl-3-oxo-pentanoic acid having a concentration of 50 mg/ml for 10 minutes. Each mouse received a dosage of 25 mg. The emulsion was prepared aseptically, by emulsifying sterile-filtered ester with a sterilized dispersion of egg-yolk phospholipids. […] The increase in weight of the animals was normal during the observation period (weight increase: X=4.5 g, S.D. 0.5).
The unspecific toxicity was tested on 5 mice by first weighing the animals, and then injecting intravenously 0.5 ml of an emulsion of 4-methy-3-oxo-pentanoic acid ethyl ester having a concentration of 5 mg/ml for 15 seconds. The emulsion was aseptically prepared, by emulsifying sterile-filtered ester with a sterilized dispersion of egg-yolk phospholipids. […] Each mouse received a total dosage of 2.5 mg.
Unspecified toxicity was tested on four mice by first weighing the animals, and then injecting intravenously 0.2 ml of an emulsion of 4-methyl-3-oxo-pentanoic acid ethyl ester having a concentration of 33 mg/ml for 30 seconds. Each mouse received a dosage of 6.7 mg. The emulsion was prepared aseptically, by emulsifying sterile-filtered ester with a sterilized dispersion of egg-yolk phospholipids. […]

[4] = after 2 hours, inoculum about 3000-10 000/ml

CCOC(=O)CC(=O)C(C)C.[Na] [sodium salt of 4-methyl-3-oxo-pentanoic acid ethyl ester]
organism count [1, 4]: 2000
organism count ([1]; after 20 hours): 0
number of organisms [2, 4]: No organisms were found
number of organisms ([2]; after 20 hours): No organisms were found

CCOC(=O)C(=O)C(C)C [Ethyl-3-methyl-2-oxo-butyrate]
number of microorganisms (E. coli; 0 hr): 0*
number of microorganisms (E. coli; 2 hrs): 0
number of microorganisms (E. coli; 20 hrs): 0

CCOC(=O)C(C)=O [Ethyl-pyruvate]
number of microorganisms (E. coli; 0 hr): 0*
number of microorganisms (E. coli; 2 hrs): 0
number of microorganisms (E. coli; 20 hrs): 0

CCOC(=O)CC(=O)CC(C)C.[Na] [sodium salt of 5-methyl-3-oxo-hexanoic acid ethyl ester]
organism count [1, 4]: 44
organism count ([1]; after 20 hours): 0
number of organisms [2, 4]: No organisms were found
number of organisms ([2]; after 20 hours): No organisms were found
time after completing the injection until return to normal [3]: 1 min
weight development over the following 7 days [3]: normal weight development
